The values below come from ChEMBL document CHEMBL4610025, “Discovery of a follistatin-derived myostatin inhibitory peptide” (Bioorg Med Chem Lett, 2020).

Active and inactive are the calls of the source. The calls are words filed in the database; no cut-off is given here. Residues, ends and D or L forms follow the SMILES beside them.

This assay has as its target Growth/differentiation factor 8 (Homo sapiens) (UniProt O14793). The assay can be described thus: Inhibition of myostatin (unknown origin) expressed in HEK293 cells at 10 uM incubated for 4 hrs by dual luciferase reporter gene assay. Format: cell-based.

Sequence of Growth/differentiation factor 8 (Homo sapiens) (O14793 267-375 limits assumed): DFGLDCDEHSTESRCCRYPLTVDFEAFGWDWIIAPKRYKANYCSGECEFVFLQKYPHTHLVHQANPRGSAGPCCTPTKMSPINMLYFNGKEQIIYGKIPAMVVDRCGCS

With `CC[C@H](C)[C@H](NC(=O)[C@H](CCSC)NC(=O)[C@H](Cc1c[nH]c2ccccc12)NC(=O)[C@H](CCCCN)NC(=O)[C@H](Cc1ccccc1)NC(=O)[C@H](CC(C)C)NC(=O)[C@@H](NC(=O)[C@H](CC(N)=O)NC(=O)[C@H](CC(=O)O)NC(=O)[C@H](CC(N)=O)NC(=O)[C@H](C)N)[C@@H](C)O)C(=O)N[C@@H](Cc1ccccc1)C(=O)N[C@@H](CC(N)=O)C(=O)NCC(N)=O` (H-ANDNTLFKWMIFNG-NH2), the inhibition result was “inactive”. As for `CC[C@H](C)[C@H](NC(=O)[C@H](CCSC)NC(=O)[C@H](Cc1c[nH]c2ccccc12)NC(=O)[C@H](CCCCN)NC(=O)[C@H](Cc1ccccc1)NC(=O)[C@H](CC(C)C)NC(=O)[C@@H](NC(=O)[C@H](CC(N)=O)NC(=O)[C@H](CC(=O)O)NC(=O)[C@H](CC(N)=O)NC(=O)[C@@H](NC(=O)[C@H](CC(=O)O)NC(=O)[C@H](CCC(=O)O)NC(=O)[C@@H](N)CCC(=O)O)C(C)C)[C@@H](C)O)C(=O)N[C@@H](Cc1ccccc1)C(=O)N[C@@H](CC(N)=O)C(=O)NCC(N)=O` (H-EEDVNDNTLFKWMIFNG-NH2), the inhibition result is “inactive”. `CC[C@H](C)[C@H](NC(=O)[C@H](CCSC)NC(=O)[C@H](Cc1c[nH]c2ccccc12)NC(=O)[C@H](CCCCN)NC(=O)[C@H](Cc1ccccc1)NC(=O)[C@H](CC(C)C)NC(=O)[C@@H](NC(=O)[C@H](CC(N)=O)NC(=O)[C@H](CC(=O)O)NC(=O)[C@@H](N)CC(N)=O)[C@@H](C)O)C(=O)N[C@@H](Cc1ccccc1)C(=O)N[C@@H](CC(N)=O)C(N)=O` (H-NDNTLFKWMIFN-NH2): the inhibition entry is “Active”.

On to `CC[C@H](C)[C@H](NC(=O)[C@H](CCSC)NC(=O)[C@H](Cc1c[nH]c2ccccc12)NC(=O)[C@H](CCCCN)NC(=O)[C@H](Cc1ccccc1)NC(=O)[C@H](CC(C)C)NC(=O)[C@@H](NC(=O)[C@H](CC(N)=O)NC(=O)[C@H](CC(=O)O)NC(=O)[C@@H](N)CC(N)=O)[C@@H](C)O)C(=O)N[C@@H](Cc1ccccc1)C(=O)N[C@@H](CC(N)=O)C(=O)NCC(N)=O` (H-NDNTLFKWMIFNG-NH2), for which the inhibition entry is “inactive”. For `CC[C@H](C)[C@H](NC(=O)[C@H](CCSC)NC(=O)[C@H](Cc1c[nH]c2ccccc12)NC(=O)[C@H](CCCCN)NC(=O)[C@H](Cc1ccccc1)NC(=O)[C@H](CC(C)C)NC(=O)[C@@H](NC(=O)[C@H](CC(N)=O)NC(=O)[C@H](CC(=O)O)NC(=O)[C@H](C)NC(=O)[C@@H](N)C(C)C)[C@@H](C)O)C(=O)N[C@@H](Cc1ccccc1)C(=O)N[C@@H](CC(N)=O)C(=O)NCC(N)=O` (H-VADNTLFKWMIFNG-NH2), the inhibition entry is “inactive”.

Regarding `CC[C@H](C)[C@H](NC(=O)[C@H](CCSC)NC(=O)[C@H](Cc1c[nH]c2ccccc12)NC(=O)[C@H](CCCCN)NC(=O)[C@H](Cc1ccccc1)NC(=O)[C@H](CC(C)C)NC(=O)[C@@H](NC(=O)[C@H](CC(N)=O)NC(=O)[C@H](C)NC(=O)[C@H](CC(N)=O)NC(=O)[C@@H](N)C(C)C)[C@@H](C)O)C(=O)N[C@@H](Cc1ccccc1)C(=O)N[C@@H](CC(N)=O)C(=O)NCC(N)=O` (H-VNANTLFKWMIFNG-NH2), the inhibition entry was “Active”. `CC[C@H](C)[C@H](NC(=O)[C@H](CCSC)NC(=O)[C@H](Cc1c[nH]c2ccccc12)NC(=O)[C@H](CCCCN)NC(=O)[C@H](Cc1ccccc1)NC(=O)[C@H](CC(C)C)NC(=O)[C@@H](NC(=O)[C@H](C)NC(=O)[C@H](CC(=O)O)NC(=O)[C@H](CC(N)=O)NC(=O)[C@@H](N)C(C)C)[C@@H](C)O)C(=O)N[C@@H](Cc1ccccc1)C(=O)N[C@@H](CC(N)=O)C(=O)NCC(N)=O` (H-VNDATLFKWMIFNG-NH2): the inhibition result is “Active”. For the compound `CC[C@H](C)[C@H](NC(=O)[C@H](CCSC)NC(=O)[C@H](Cc1c[nH]c2ccccc12)NC(=O)[C@H](CCCCN)NC(=O)[C@H](Cc1ccccc1)NC(=O)[C@H](CC(C)C)NC(=O)[C@H](C)NC(=O)[C@H](CC(N)=O)NC(=O)[C@H](CC(=O)O)NC(=O)[C@H](CC(N)=O)NC(=O)[C@@H](N)C(C)C)C(=O)N[C@@H](Cc1ccccc1)C(=O)N[C@@H](CC(N)=O)C(=O)NCC(N)=O` (H-VNDNALFKWMIFNG-NH2), the inhibition result was “inactive”. Consider `CC[C@H](C)[C@H](NC(=O)[C@H](CCSC)NC(=O)[C@H](Cc1c[nH]c2ccccc12)NC(=O)[C@H](CCCCN)NC(=O)[C@H](Cc1ccccc1)NC(=O)[C@H](C)NC(=O)[C@@H](NC(=O)[C@H](CC(N)=O)NC(=O)[C@H](CC(=O)O)NC(=O)[C@H](CC(N)=O)NC(=O)[C@@H](N)C(C)C)[C@@H](C)O)C(=O)N[C@@H](Cc1ccccc1)C(=O)N[C@@H](CC(N)=O)C(=O)NCC(N)=O` (H-VNDNTAFKWMIFNG-NH2), for which the inhibition entry was “inactive”. In the case of `CC[C@H](C)[C@H](NC(=O)[C@H](CCSC)NC(=O)[C@H](Cc1c[nH]c2ccccc12)NC(=O)[C@H](CCCCN)NC(=O)[C@H](C)NC(=O)[C@H](CC(C)C)NC(=O)[C@@H](NC(=O)[C@H](CC(N)=O)NC(=O)[C@H](CC(=O)O)NC(=O)[C@H](CC(N)=O)NC(=O)[C@@H](N)C(C)C)[C@@H](C)O)C(=O)N[C@@H](Cc1ccccc1)C(=O)N[C@@H](CC(N)=O)C(=O)NCC(N)=O` (H-VNDNTLAKWMIFNG-NH2), the inhibition result is “inactive”.

As to `CC[C@H](C)[C@H](NC(=O)[C@H](CCSC)NC(=O)[C@H](Cc1c[nH]c2ccccc12)NC(=O)[C@H](C)NC(=O)[C@H](Cc1ccccc1)NC(=O)[C@H](CC(C)C)NC(=O)[C@@H](NC(=O)[C@H](CC(N)=O)NC(=O)[C@H](CC(=O)O)NC(=O)[C@H](CC(N)=O)NC(=O)[C@@H](N)C(C)C)[C@@H](C)O)C(=O)N[C@@H](Cc1ccccc1)C(=O)N[C@@H](CC(N)=O)C(=O)NCC(N)=O` (H-VNDNTLFAWMIFNG-NH2), the inhibition result was “inactive”. For `CC[C@H](C)[C@H](NC(=O)[C@H](CCSC)NC(=O)[C@H](C)NC(=O)[C@H](CCCCN)NC(=O)[C@H](Cc1ccccc1)NC(=O)[C@H](CC(C)C)NC(=O)[C@@H](NC(=O)[C@H](CC(N)=O)NC(=O)[C@H](CC(=O)O)NC(=O)[C@H](CC(N)=O)NC(=O)[C@@H](N)C(C)C)[C@@H](C)O)C(=O)N[C@@H](Cc1ccccc1)C(=O)N[C@@H](CC(N)=O)C(=O)NCC(N)=O` (H-VNDNTLFKAMIFNG-NH2), the inhibition entry was “inactive”. In the case of `CC[C@H](C)[C@H](NC(=O)[C@H](C)NC(=O)[C@H](Cc1c[nH]c2ccccc12)NC(=O)[C@H](CCCCN)NC(=O)[C@H](Cc1ccccc1)NC(=O)[C@H](CC(C)C)NC(=O)[C@@H](NC(=O)[C@H](CC(N)=O)NC(=O)[C@H](CC(=O)O)NC(=O)[C@H](CC(N)=O)NC(=O)[C@@H](N)C(C)C)[C@@H](C)O)C(=O)N[C@@H](Cc1ccccc1)C(=O)N[C@@H](CC(N)=O)C(=O)NCC(N)=O` (H-VNDNTLFKWAIFNG-NH2), the inhibition entry is “inactive”.

With `CSCC[C@H](NC(=O)[C@H](Cc1c[nH]c2ccccc12)NC(=O)[C@H](CCCCN)NC(=O)[C@H](Cc1ccccc1)NC(=O)[C@H](CC(C)C)NC(=O)[C@@H](NC(=O)[C@H](CC(N)=O)NC(=O)[C@H](CC(=O)O)NC(=O)[C@H](CC(N)=O)NC(=O)[C@@H](N)C(C)C)[C@@H](C)O)C(=O)N[C@@H](C)C(=O)N[C@@H](Cc1ccccc1)C(=O)N[C@@H](CC(N)=O)C(=O)NCC(N)=O` (H-VNDNTLFKWMAFNG-NH2), the inhibition entry was “inactive”.
